Measurements from PubChem BioAssay AID624258 (Broad Institute, 2012).
Active and inactive are the calls of the source. The rule behind the calls is not given here.

Assay: SKN7 mediated toxicity in Saccharomyces cerevisiae, growth rescue counterscreen, dose confirmation (AID 624258);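 note: growth read after three days of incubation at 30 °C; 0% = median of neutral control wells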
Conditions: S. cerevisiae SKN7-toxicity growth rescue, plate reader

Row | SMILES | growth rescue activity (at 19.5 µM (top of the series)) | growth rescue activity (at 6.8 µM (top of the series))
1 | CC(=O)N1CC[n+]2c(-c3ccc(Cl)cc3)csc21 | -24.8% (inactive) | 
2 | Clc1ccc(C(Cn2ccnc2)OCc2c(Cl)cccc2Cl)c(Cl)c1 (configuration not stated) | -69.1% (inactive) | 
3 | CN(Cc1ccc(Cl)s1)C(=O)CCl | 19.3% (inactive) | 
4 | Cc1cccc(N2CCN(C(=O)C3COc4ccccc4O3)CC2)c1C (configuration not stated) | -49.4% (inactive) | 
5 | Cc1ccc(Cl)cc1NC1=C/C(=N\S(=O)(=O)c2cccs2)c2ccccc2C1=O | -24.9% (inactive) | 
6 | CCCCC(=O)NC(=S)NNC(=O)CCc1ccccc1 | -22.9% (inactive) | 
7 | COc1cc2nc(N3CCNCC3)nc(N)c2cc1OC |  | 5.76% (inactive)
8 | O=C(N/N=C/c1cc(Cl)cc([N+](=O)[O-])c1O)c1ccccc1NS(=O)(=O)c1cccs1 | -5.73% (inactive) | 
9 | Cc1onc(-c2ccccc2)c1C(=O)NC(=S)NNC(=O)c1ccc(O)cc1O | -33.4% (inactive) | 
10 | CCCCCC1CCC(c2ccc(/C(N)=N/O)cc2)CC1 (configuration not stated) | -61.8% (inactive) | 
11 | CCN(CC)c1ccc(/C=C/c2ccc3ccc(OC)cc3[n+]2CC)cc1 | -52.7% (inactive) | 
12 | NC(=O)N=Nc1c2[nH]c3ccccc3nc-2c2ccccc12 | 6.67% (inactive) | 
13 | O=C(O)CSc1nc(-c2ccc(Cl)cc2)nc2c1oc1ccccc12 | -84.1% (inactive) | 
14 | N#Cc1c(-c2ccccc2)nc2n(c1=O)CCS2 | 27.6% (inactive) | 
15 | O=C(O)c1ccccc1NC(c1ccccc1)c1ccc2cccnc2c1O (configuration not stated) | -59.1% (inactive) | 
16 | COc1ccc(OC)c(-c2c3cc(O)c(=O)cc-3oc3cc(O)c(O)cc23)c1 | 26.2% (inactive) | 
17 | CC(C)(C)c1ccc(C(=O)NC(=S)NNC(=O)c2cccs2)cc1 | -72.5% (inactive) | 
18 | Nc1ccc(CC2=NCCN2)cc1 | 34.1% (inactive) | 
19 | O=C(CN1CC[n+]2c(-c3cccs3)csc21)c1ccc(-c2ccccc2)cc1 | -63.4% (inactive) | 
20 | CCCCCOc1ccc(CSc2n[nH]c(C)n2)cc1 | -91.3% (inactive) | 
21 | Cc1cc(SC#N)cc(C)c1NC(=O)CCl | -87% (inactive) | 
22 | CC[C@@H](C(=O)[C@@H](C)[C@@H](O)[C@H](C)[C@@H]1O[C@@H]([C@@H](CC)C(=O)O)CC[C@@H]1C)[C@H]1O[C@]2(C=C[C@@H](O)[C@]3(CC[C@@](C)([C@H]4CC[C@](O)(CC)[C@H](C)O4)O3)O2)[C@H](C)C[C@@H]1C | -61.6% (inactive) | 
23 | CC(=O)/C=C(\C)Nc1ccccc1O | -6.16% (inactive) | 

Row | SMILES | growth rescue activity (at 19.5 µM (top of the series)) | growth rescue activity (at 6.8 µM (top of the series))
24 | CCC(=O)NC(c1ccco1)c1cc(Cl)c2cccnc2c1O (configuration not stated) | -49.4% (inactive) | 
25 | Nc1cc2nc3ccccc3oc-2cc1=O | -51.6% (inactive) | 
26 | O=C(NCCN1C(=O)S/C(=C\c2cccc(Cl)c2Cl)C1=O)C1=COCCO1 | 13.6% (inactive) | 
27 | CCOC(=O)c1cc2c(=Cc3ccc(N(C)C)cc3)c3ccccc3n2[n+]1C |  | -71.9% (inactive)
28 | C=C(C)COc1ccc(-c2[nH]ncc2-c2ccc(Br)cc2)c(O)c1 | -77.7% (inactive) | 
29 | CCOC(=O)CN1C(=O)C2Cc3ccccc3CN2C1=S (configuration not stated) | 41.4% (inactive) | 
30 | CCC(C)Sc1cccc(-c2nc3ccccn3c2NCc2ccccc2)c1 (configuration not stated) | -90.6% (inactive) | 
31 | S=c1[nH]nc(-c2ccco2)n1/N=C/c1ccc(Br)s1 | 30.2% (inactive) | 
32 | C=CCOc1ccc(-c2n[nH]c(=S)o2)cc1 | -47.1% (inactive) | 
33 | O=S(=O)(O)c1cc(Cl)cc(N=Nc2ccc(O)cc2O)c1O | 41.4% (inactive) | 
34 | Cc1cc(C)c2sc(NNC(=O)c3ccc(S(=O)(=O)N4CCc5ccccc5C4)cc3)nc2c1 | -31.4% (inactive) | 
35 | Cc1ccccc1CN(C)CCS(=O)(=O)c1cc(Cl)ccc1Cl | -67.7% (inactive) | 
36 | Cc1ccc(NS(=O)(=O)c2ccc(N3CCN(c4ccc(O)cc4)CC3)c([N+](=O)[O-])c2)c(C)c1 | -52.6% (inactive) | 
37 | Nc1nc(-c2ccccc2)c(-c2ccc([N+](=O)[O-])cc2)s1 | -79.9% (inactive) | 
38 | Cc1cccc(N2CCN(C(=O)C3(S(=O)(=O)c4ccc(Cl)cc4)CC3)CC2)c1C | -38.2% (inactive) | 
39 | O=C(O)/C(=C\c1ccc(F)cc1)c1ccc(-c2ccccc2)cc1 | -66.8% (inactive) | 
40 | Cc1nc(SCc2ccc(OCCC(C)C)cc2)n[nH]1 | -93.3% (inactive) | 
41 | c1ccc(-c2ccc(SCc3cccnc3)nn2)nc1 | -9.85% (inactive) | 
42 | Oc1c(Br)cc(Br)cc1CNc1ccc(F)cc1 | -92% (inactive) | 
43 | O=C1C(=O)c2ccccc2C(O)=C1CC=C(Cl)Cl | -94.4% (inactive) | 
44 | CC(C)CSc1n[nH]c(=S)s1 | -51% (inactive) | 
45 | COc1nc(NC23CC4CC(CC(C4)C2)C3)nc(OC)n1 | 145% (inactive) | 
46 | O=C(COC(=O)c1ccc([N+](=O)[O-])o1)NC12CC3CC(CC(C3)C1)C2 | -18.4% (inactive) | 

Row | SMILES | growth rescue activity (at 19.5 µM (top of the series)) | growth rescue activity (at 6.8 µM (top of the series))
47 | c1ccc(C(=NNc2nc3ccccc3s2)c2ccccn2)cc1 | -69.9% (inactive) | 
48 | Cc1cccc(Oc2nc(-c3ccccn3)nc3ccccc23)c1 | -67.8% (inactive) | 
49 | Cc1cc(O)c(-c2cc(O)c(C)cc2O)cc1O | -8.5% (inactive) | 
50 | Cc1cc(Cl)ccc1C(=O)C1CCCN(C(=O)c2cncs2)C1 (configuration not stated) | -54.3% (inactive) | 
51 | Cc1cc(C)c(C(=O)CC(=O)c2cccnc2)c(C)c1 | -57.9% (inactive) | 
52 | c1ccc(-c2ccc(OCCCn3cncn3)cc2)cc1 | -51.8% (inactive) | 
53 | O=C(c1ccccc1)N1C(=O)C(c2ccccc2)Oc2ccccc21 (configuration not stated) | -57.4% (inactive) | 
54 | COc1cc2c(cc1OC)C(C)N(C(=O)C1COc3ccccc3O1)CC2 (configuration not stated) | 14.6% (inactive) | 
55 | CN(C)S(=O)(=O)Oc1cccc(C(=O)Nc2ccc(Cl)cc2)c1 | -19.4% (inactive) | 
56 | CC1CCN(c2ccc3c(c2)S(=O)(=O)c2ccccc2C3=O)CC1 | -45.6% (inactive) | 
57 | CCCS(=O)(=O)c1c(S(=O)(=O)CCC)c2c(C)cccn2c1C(=O)N/N=C/c1cc(O)cc(O)c1 | 22.5% (inactive) | 
58 | CC1=C(C)C(=O)C(CCCCC#CCCCC#CCO)=C(C)C1=O | -34.8% (inactive) | 
59 | O=C(N/N=C/c1cc(Br)cc(Cl)c1O)c1ccc2c(c1)OCO2 | -36.6% (inactive) | 
60 | CCCn1c2ccccc2c2cc(C(=O)O)ccc21 |  | -29.3% (inactive)
61 | CC1CN(C(=O)c2cc([N+](=O)[O-])cc([N+](=O)[O-])c2)CC(C)O1 (configuration not stated) | -63% (inactive) | 
62 | COc1cccc(C(C)=C2SC(=S)NC2=O)c1 |  | -39% (inactive)
63 | Cc1ccoc1C(=O)Nc1cccc(Oc2ccccc2)c1 | -88.5% (inactive) | 
64 | COc1cccc(NC(=O)CN(C)C(=O)c2cccnc2Nc2cccc(C(F)(F)F)c2)c1 | -21.3% (inactive) | 
65 | CCCOc1ccc2ccccc2c1/C=C1\SC(=O)NC1=O | -39.3% (inactive) | 
66 | N#CC1C(=N)Cc2ccccc2-c2ccccc21 (configuration not stated) | -20.3% (inactive) | 
67 | Nc1nonc1C(=O)NCCN=Cc1cc(Cc2ccccc2)cc(Br)c1O | -81% (inactive) | 
